Measured values from PMC5863483, “Low HLA binding of diabetes-associated CD8+ T-cell epitopes is increased by post translational modifications” (BMC Immunology, 2018).
*1 amine or outer side, *2 acyl side, *3 side chain or, on linkers, in order; H or OH if unused. Where a SMILES comes first, the peptide text is derived from it. [ ]: non-standard residue; d: D form. Tyr(3-Cl) = N[C@@H](Cc1ccc(O)c(Cl)c1)C(=O)O; γGlu = O=C(O)[C@H](CCC(=O)[*:2])N[*:1]; βAsp = O=C(O)[C@H](CC(=O)[*:2])N[*:1]; Cya = N[C@@H](CS(=O)(=O)O)C(=O)O; Cit = NC(=O)NCCC[C@H](N)C(=O)O

Target: HLA-A*02:01 (Homo sapiens, UniProt P04439, D140Y/D185E/D98H/E176V/E277Q/G131W/G231S/I119V/I121R/I166T/I218V/L300P/L318F/N151K/N90K/P208A/P217A/Q86G/Q94H/R138H/R169H/T345S)
Assay: HLA-peptide competition binding assay, A*02:01
Conditions: not given

Row | Compound | IC50
1 | CSCC[C@H](NC(=O)[C@@H](N)Cc1c[nH]c2ccccc12)C(=O)N[C@@H](CCCNC(N)=O)C(=O)N[C@@H](CC(C)C)C(=O)N[C@@H](CC(C)C)C(=O)N1CCC[C@H]1C(=O)N[C@@H](CC(C)C)C(=O)N[C@@H](CC(C)C)C(=O)N[C@@H](C)C(=O)O (H-WM[Cit]LLPLLA-OH) | 1010 nM
2 | CC(C)C[C@H](NC(=O)[C@H](Cc1c[nH]cn1)NC(=O)[C@H](CO)NC(=O)CNC(=O)[C@H](CS(=O)(=O)O)NC(=O)[C@H](CC(C)C)NC(=O)[C@@H](N)Cc1c[nH]cn1)C(=O)N[C@H](C(=O)N[C@@H](CCC(=O)O)C(=O)N[C@@H](C)C(=O)O)C(C)C [HLBGSHLVEA] (H-HL[Cya]GSHLVEA-OH) | 6210 nM

Same assay, conditions: increase of A*02:01 binding of the modified peptide compared to the WT peptide

Row | Compound | Fold increase
3 | CC(C)C[C@H](NC(=O)[C@H](C)N)C(=O)N[C@@H](Cc1ccc(O)c(Cl)c1)C(=O)N[C@@H](CC(C)C)C(=O)N[C@H](C(=O)N[C@@H](CS)C(=O)NCC(=O)N[C@@H](CCC(=O)O)C(=O)N[C@@H](CCCNC(=N)N)C(=O)NCC(=O)O)C(C)C [ALJLVCGERG] | 3.21 fold
4 | CC(C)C[C@H](NC(=O)[C@@H](N)Cc1ccc(O)c(Cl)c1)C(=O)N[C@H](C(=O)N[C@@H](CS)C(=O)NCC(=O)N[C@@H](CCC(=O)O)C(=O)N[C@@H](CCCNC(=N)N)C(=O)NCC(=O)N[C@@H](Cc1ccccc1)C(=O)O)C(C)C [JLVCGERGF] (H-[Tyr(3-Cl)]LVCGERGF-OH; N-terminus and C-terminus assumed) | 2.13 fold

Same assay, conditions: post-translationally modified insulin peptide; competition binding assay; a dash indicates IC50 >40,000 nM; read-out: A*02:01 binding (IC50 nM) Modified

Row | Compound | IC50
5 | CC(C)[C@H](N)C(=O)N[C@@H](CS)C(=O)NCC(=O)N[C@@H](CCC(=O)O)C(=O)N[C@@H](CCCNC(N)=O)C(=O)NCC(=O)N[C@@H](Cc1ccccc1)C(=O)N[C@@H](Cc1ccccc1)C(=O)N[C@@H](Cc1ccc(O)cc1)C(=O)N[C@H](C(=O)O)[C@@H](C)O (H-VCGE[Cit]GFFYT-OH; N-terminus and C-terminus assumed) | > 40000 nM
6 | C[C@H](NC(=O)[C@H](CCC(=O)O)NC(=O)[C@H](CCCNC(N)=O)NC(=O)[C@H](CCCNC(N)=O)NC(=O)[C@@H](NC(=O)[C@H](CCCCN)NC(=O)[C@@H]1CCCN1C(=O)[C@@H](NC(=O)[C@@H](N)Cc1ccc(O)cc1)[C@@H](C)O)[C@@H](C)O)C(=O)N[C@@H](CCC(=O)O)C(=O)O (H-YTPKT[Cit][Cit]EAE-OH; N-terminus and C-terminus assumed) | > 40000 nM
7 | CC(C)C[C@H](NC(=O)[C@H](CC(=O)O)NC(=O)[C@H](CCC(=O)O)NC(=O)[C@H](C)NC(=O)[C@H](CCC(=O)O)NC(=O)[C@@H](N)CCCNC(N)=O)C(=O)N[C@@H](CCC(N)=O)C(=O)N[C@H](C(=O)NCC(=O)O)C(C)C (H-[Cit]EAEDLQVG-OH; N-terminus and C-terminus assumed) | > 40000 nM
8 | CC(C)C[C@H](NC(=O)[C@H](CC(=O)O)NC(=O)[C@H](CCC(=O)O)NC(=O)[C@H](C)NC(=O)[C@H](CCC(=O)O)NC(=O)[C@@H](N)CCCNC(N)=O)C(=O)N[C@@H](CCC(N)=O)C(=O)N[C@H](C(=O)NCC(=O)N[C@@H](CCC(N)=O)C(=O)O)C(C)C (H-[Cit]EAEDLQVGQ-OH; N-terminus and C-terminus assumed) | > 40000 nM
9 | CC(C)C[C@H](NC(=O)[C@H](CC(=O)O)NC(=O)[C@H](CCC(=O)O)NC(=O)[C@H](C)NC(=O)[C@H](CCC(=O)O)NC(=O)[C@H](CCCNC(N)=O)NC(=O)[C@@H](N)CCCNC(N)=O)C(=O)N[C@@H](CCC(N)=O)C(=O)N[C@H](C(=O)O)C(C)C (H-[Cit][Cit]EAEDLQV-OH; N-terminus and C-terminus assumed) | > 40000 nM
10 | CC(C)C[C@H](NC(=O)[C@H](CC(=O)O)NC(=O)[C@H](CCC(=O)O)NC(=O)[C@H](C)NC(=O)[C@H](CCC(=O)O)NC(=O)[C@H](CCCNC(N)=O)NC(=O)[C@@H](N)CCCNC(N)=O)C(=O)N[C@@H](CCC(N)=O)C(=O)N[C@H](C(=O)NCC(=O)O)C(C)C (H-[Cit][Cit]EAEDLQVG-OH; N-terminus and C-terminus assumed) | > 40000 nM
11 | C[C@@H](O)[C@H](NC(=O)[C@H](Cc1ccc(O)cc1)NC(=O)[C@H](Cc1ccc(O)cc1)NC(=O)[C@H](Cc1ccc(O)cc1)NC(=O)CNC(=O)[C@H](CCCNC(=N)N)NC(=O)[C@H](CCC(=O)O)NC(=O)CNC(=O)[C@@H](N)CS(=O)(=O)O)C(=O)O [BGERGYYYT] (H-[Cya]GERGYYYT-OH; N-terminus and C-terminus assumed) | > 40000 nM
12 | CC(C)C[C@H](NC(=O)[C@H](C)NC(=O)[C@H](CCC(=O)O)NC(=O)[C@@H](NC(=O)[C@H](CC(C)C)NC(=O)[C@H](Cc1c[nH]cn1)NC(=O)[C@H](CO)NC(=O)CNC(=O)[C@@H](N)CS(=O)(=O)O)C(C)C)C(=O)O [BGSHLVEAL] (H-[Cya]GSHLVEAL-OH; N-terminus and C-terminus assumed) | > 40000 nM
13 | CC(C)C[C@H](NC(=O)[C@H](Cc1c[nH]cn1)NC(=O)[C@H](CCC(N)=O)NC(=O)[C@H](CC(N)=O)NC(=O)[C@@H](NC(=O)[C@@H](N)Cc1ccccc1)C(C)C)C(=O)N[C@@H](CS(=O)(=O)O)C(=O)NCC(=O)N[C@@H](CO)C(=O)N[C@@H](Cc1c[nH]cn1)C(=O)O [FVNQHLBGSH] (H-FVNQHL[Cya]GSH-OH; N-terminus and C-terminus assumed) | > 40000 nM
14 | CC(C)C[C@H](NC(=O)[C@H](Cc1c[nH]cn1)NC(=O)[C@H](CCC(N)=O)NC(=O)[C@H](CC(N)=O)NC(=O)[C@@H](NC(=O)[C@@H](N)Cc1ccccc1)C(C)C)C(=O)N[C@@H](CS(=O)(=O)O)C(=O)NCC(=O)N[C@@H](CO)C(=O)O [FVNQHLBGS] (H-FVNQHL[Cya]GS-OH; N-terminus and C-terminus assumed) | > 40000 nM
15 | CC(C)C[C@H](NC(=O)[C@H](Cc1c[nH]cn1)NC(=O)CC[C@H](NC(=O)C[C@H](NC(=O)[C@@H](NC(=O)[C@@H](N)Cc1ccccc1)C(C)C)C(=O)O)C(=O)O)C(=O)N[C@@H](CS)C(=O)NCC(=O)N[C@@H](CO)C(=O)N[C@@H](Cc1c[nH]cn1)C(=O)O [FVOZHLCGSH] (H-FV[βAsp][γGlu]HLCGSH-OH; N-terminus and C-terminus assumed) | > 40000 nM
16 | CC(C)C[C@H](NC(=O)[C@H](Cc1c[nH]cn1)NC(=O)CC[C@H](NC(=O)C[C@H](NC(=O)[C@@H](NC(=O)[C@@H](N)Cc1ccccc1)C(C)C)C(=O)O)C(=O)O)C(=O)N[C@@H](CS)C(=O)NCC(=O)N[C@@H](CO)C(=O)O [FVOZHLCGS] (H-FV[βAsp][γGlu]HLCGS-OH; N-terminus and C-terminus assumed) | > 40000 nM
17 | CC(C)C[C@H](NC(=O)[C@H](Cc1c[nH]cn1)NC(=O)[C@H](CO)NC(=O)CNC(=O)[C@H](CS(=O)(=O)O)NC(=O)[C@H](CC(C)C)NC(=O)[C@@H](N)Cc1c[nH]cn1)C(=O)N[C@H](C(=O)N[C@@H](CCC(=O)O)C(=O)O)C(C)C [HLBGSHLVE] (H-HL[Cya]GSHLVE-OH; N-terminus and C-terminus assumed) | > 40000 nM

Same assay, conditions: post-translationally modified insulin-derived peptide; radiolabeled ligand competition, purified MHC, two-day incubation, three or more independent experiments; read-out: A*02:01 binding, Modified

Row | Compound | IC50
18 | CC(C)C[C@H](NC(=O)[C@H](C)NC(=O)[C@H](CCC(=O)O)NC(=O)[C@@H](NC(=O)[C@H](CC(C)C)NC(=O)[C@H](Cc1c[nH]cn1)NC(=O)[C@H](CO)NC(=O)CNC(=O)[C@@H](N)CS(=O)(=O)O)C(C)C)C(=O)N[C@@H](Cc1ccc(O)cc1)C(=O)O [BGSHLVEALY] (H-[Cya]GSHLVEALY-OH) | 8040 nM

Same assay, conditions: read-out: A*02:01 binding (IC50 nM) Modified

Row | Compound | IC50
19 | CC(C)[C@H](N)C(=O)N[C@@H](CS)C(=O)NCC(=O)N[C@@H](CCC(=O)O)C(=O)N[C@@H](CCCNC(N)=O)C(=O)NCC(=O)N[C@@H](Cc1ccccc1)C(=O)N[C@@H](Cc1ccccc1)C(=O)N[C@@H](Cc1ccc(O)cc1)C(=O)O (H-VCGE[Cit]GFFY-OH) | 33500 nM
20 | CC(C)C[C@H](NC(=O)[C@@H](N)Cc1ccc(O)cc1)C(=O)N[C@H](C(=O)N[C@@H](CS)C(=O)NCC(=O)N[C@@H](CCC(=O)O)C(=O)N[C@@H](CCCNC(N)=O)C(=O)NCC(=O)N[C@@H](Cc1ccccc1)C(=O)O)C(C)C (H-YLVCGE[Cit]GF-OH) | 11400 nM
21 | CC(C)C[C@H](NC(=O)[C@@H](N)Cc1ccc(O)cc1)C(=O)N[C@H](C(=O)N[C@@H](CS)C(=O)NCC(=O)N[C@@H](CCC(=O)O)C(=O)N[C@@H](CCCNC(N)=O)C(=O)NCC(=O)N[C@@H](Cc1ccccc1)C(=O)N[C@@H](Cc1ccccc1)C(=O)O)C(C)C (H-YLVCGE[Cit]GFF-OH) | 2620 nM
22 | C[C@H](NC(=O)[C@H](CCC(=O)O)NC(=O)[C@H](CCCNC(N)=O)NC(=O)[C@H](CCCNC(N)=O)NC(=O)[C@@H](NC(=O)[C@H](CCCCN)NC(=O)[C@@H]1CCCN1C(=O)[C@@H](NC(=O)[C@@H](N)Cc1ccc(O)cc1)[C@@H](C)O)[C@@H](C)O)C(=O)O (H-YTPKT[Cit][Cit]EA-OH) | 34700 nM
23 | CC(C)C[C@H](NC(=O)[C@H](CC(C)C)NC(=O)[C@H](C)NC(=O)[C@H](CC(C)C)NC(=O)[C@H](CC(C)C)NC(=O)[C@@H]1CCCN1C(=O)[C@H](CC(C)C)NC(=O)[C@H](CC(C)C)NC(=O)[C@@H](N)CCCNC(N)=O)C(=O)O (H-[Cit]LLPLLALL-OH) | 83 nM
24 | CC(C)C[C@H](NC(=O)[C@H](C)NC(=O)[C@H](CC(C)C)NC(=O)[C@H](CC(C)C)NC(=O)[C@@H]1CCCN1C(=O)[C@H](CC(C)C)NC(=O)[C@H](CC(C)C)NC(=O)[C@@H](N)CCCNC(N)=O)C(=O)N[C@@H](CC(C)C)C(=O)N[C@@H](C)C(=O)O (H-[Cit]LLPLLALLA-OH) | 70 nM
25 | CC[C@H](C)[C@H](NC(=O)CNC(=O)[C@H](CCCNC(N)=O)NC(=O)[C@H](CCCCN)NC(=O)[C@H](CCC(N)=O)NC(=O)[C@H](CC(C)C)NC(=O)[C@H](CO)NC(=O)CN)C(=O)N[C@H](C(=O)N[C@@H](CCC(=O)O)C(=O)O)C(C)C [GSLQKUGIVE] (H-GSLQK[Cit]GIVE-OH) | 34500 nM

Same assay, conditions: read-out: A*02:01 binding (IC50 nM) Modified; post-translationally modified insulin peptide; competition binding assay; a dash indicates IC50 >40,000 nM

Row | Compound | IC50
26 | C[C@@H](O)[C@H](NC(=O)[C@H](Cc1ccc(O)cc1)NC(=O)[C@H](Cc1ccc(O)cc1)NC(=O)[C@H](Cc1ccc(O)cc1)NC(=O)CNC(=O)[C@H](CCCNC(=N)N)NC(=O)[C@H](CCC(=O)O)NC(=O)CNC(=O)[C@@H](N)CS(=O)(=O)O)C(=O)N1CCC[C@H]1C(=O)O [BGERGYYYTP] (H-[Cya]GERGYYYTP-OH; N-terminus and C-terminus assumed) | > 40000 nM
